The text below walks through data of patent publication US20140336218A1, “ARFORMOTEROL AND TIOTROPIUM COMPOSITIONS AND METHODS FOR USE” (priority 2008, published 2014).

The test system of data set [1] is COPD patients. Briefly: Rescue medication (levalbuterol MDI) use in 2-week clinical trial. The class given is in vivo, human. The method, then:
(§1) This was a 2-week, prospective, multi-center (34 sites), randomized, modified blind, double dummy, parallel group study designed to evaluate the efficacy and safety of the combination of arformoterol 15 μg BID and tiotropium 18 μg QD (dosed sequentially) versus the individual mono-therapies in the treatment of COPD patients. The study was conducted according to the principles established by the Declaration of Helsinki (see, e.g., World Medical Association Declaration of Helsinki. Recommendations guiding physicians in biomedical research involving human subjects. JAMA 1997; 277:925-926.). Appropriate Institutional Review boards approved the protocol and written informed consent was obtained from the patients.
During the study period, the use of LABAs or long-or short-acting anticholinergic bronchodilators (except for the study medication) was prohibited. Use of oral and inhaled corticosteroids was allowed as long as patients were on a stable dosing regimen for at least 14 days prior to study entry that was maintained throughout the study. Patients were required to withhold oral corticosteroids for at least 24 hours prior to pulmonary function testing. Leukotriene modifiers and methylxanthines were not allowed for at least 7-days prior to study entry. Levalbuterol MDI (Xopenex® Sepracor Inc., Marlborough, Mass.) was supplied and used as-needed for rescue medications for acute bronchospasm and acute treatment of COPD symptoms throughout the trial. Patients were instructed to withhold the use of rescue medication for ≧6 hours prior to each clinic visit.
At the screening visit, baseline values were obtained for COPD symptoms, Modified Medical Research Council (MMRC) Dyspnea Scale, heart rate, vital signs, and pulmonary function tests. Medical event calendars and medication logs that were to be completed daily, and rescue medication were also dispensed. The medication logs were used to assess compliance by monitoring the number of UDV/DPI doses taken.
(§2) Eligible patients were randomized to receive one of three treatments for 14 days: nebulized arformoterol 15 μg (Brovana®, Sepracor Inc., Marlborough, Mass.) BID and placebo DPI QD, nebulized placebo BID and tiotropium 18 μg (Spriva® HandiHaler® Boehringer Ingelheim, Ridgefield, Conn.) DPI QD, or nebulized arformoterol 15 μg BID and tiotropium 18 μg DPI QD. The nebulized drug was administered first using the PARI LC Plus® nebulizer driven by the Duraneb 3000® compressor (Pari: Pari Respiratory Equipment Inc., Midlothian, Va.) at a flow rate of 3.3 L/minute followed (within 5 minutes) by the DPI administration (HandiHaler®). The tiotropium and placebo DPI capsules were identical in size and shape but differed in color.

Data set [2] concerns COPD patients. The experiment in a line: Adverse events in 2-week clinical trial. The conditions noted are these: for Any adverse event, n (%) / COPD exacerbations / Discontinued due to adverse events, n (%) / Overall cardiovascular adverse events, n (%) / Serious adverse events, n (%): ITT, 2 weeks of treatment. The method, then:
as §1, §2
Descriptive statistics were calculated by treatment for baseline characteristics and each efficacy parameter. Adverse events were summarized using counts and percentages. All adverse events were coded using MedDRA (Medical Dictionary for Regulatory Activities (see, e.g., MedDRA and MSSO. The medical dictionary for regulatory activities 2008). A COPD exacerbation was pre-defined as an increase in symptoms that necessitated any change in baseline medication other than bronchodilators (e.g. anti-inflammatory agents, antibiotics, supplemental oxygen therapy, etc.) or caused the patient to require additional medical attention (hospitalization, emergency room visit, etc.).

The subject of data set [3] is COPD patients. Briefly: Inspiratory capacity in 2-week clinical trial. In kind it is in vivo, human. The conditions noted are these: for Mean (SD) inspiratory capacity improvement from baseline: 2-hours post-dosing; for Difference in trough FEV1 between combined therapy and mono-therapies, LS mean / Change in trough inspiratory capacity, mean (SD): ITT; for Difference in trough FEV1 between combined therapy and mono-therapies, LS mean / Change in trough inspiratory capacity, mean (SD) / Difference between combined therapy and mono-therapies in change in inspiratory capacity, LS mean: week 2; for Difference in trough FEV1 between combined therapy and mono-therapies, LS mean: printed below the trough inspiratory capacity line, combined therapy versus the mono-therapy; for Change in trough inspiratory capacity, mean (SD): trough = 24 hour time point after morning dose; for Difference between combined therapy and mono-therapies in change in inspiratory capacity, LS mean: combined versus the mono-therapy; for Change in Inspiratory Capacity, mean (SD): week 2 from study baseline. The method, then: as §1, §2
At week 0 and week 2, medical event calendars and blood samples were collected and vital signs and heart measurements analyzed. At week 0, spirometry was performed pre-morning dose, immediately (within 5 minutes) and at 30 minutes, 1, 2, 4, 6, 8, 10, and 12 hours post-first dose. After the 12-hour pulmonary function test patients self-administered the evening dose of study medication. At week 2, serial spirometry was also performed as at week 0, as well as immediately (within 5 minutes) following the evening dose (administered 12 hours after the morning dose) and 12.5, 13, 14, 16, 23, and 24 hours post-morning dose. Inspiratory capacity was evaluated pre-dose and at 2 hours post-morning dose at week 0, and pre-dose and 2, 11, 14, and 24 hours post-morning dose at week 2. All inspiratory capacity measurements were the mean of acceptable inspiratory capacity maneuvers, two of which were reproducible. Prior to an inspiratory capacity maneuver a patient had to have a stable expiratory level for about 10 breaths. Once the stable level was achieved, at the end of exhalation of a normal breath the patient was asked to make a steady and full inhalation at normal inspiratory flow rates until the lungs were completely full, and then to exhale at a normal rate.
All pulmonary function values used were the highest among the three acceptable maneuvers. The Investigator ensured that all spirometry was performed in accordance with the American Thoracic Society/European Respiratory Society Standardisation of Spirometry guidelines (see, e.g., Miller M R, Hankinson J, Brusasco V, Burgos F, Casaburi R, Coates A, et al. Standardisation of spirometry. Eur Respir J 2005; 26:319-338; herein incorporated in its entirety by reference). Centralized over-reading of spirometry and inspiratory capacity pulmonary function measures were used for quality control.
The study was designed to detect a mean treatment difference of time normalized FEV1AUC over 24 hours (FEV1AUC0-24) (the primary endpoint) of 0.075 L with a standard deviation of 0.016 L when comparing combined therapy with mono-therapy, using a two-sided 5% significance level, following 2-weeks of dosing for the primary comparison with 80% power. All efficacy analyses were performed on the ITT population. All statistical testing was 2-tailed and conducted at the 5% significance level, unless otherwise indicated.

[4] abbreviates: <50% percent predicted FEV1, changes in levalbuterol MDI use at week 2.
Where [5] appears, read: ITT, week 2, change from baseline, levalbuterol rescue.
[6] abbreviates: ≧50% percent predicted FEV1, changes in levalbuterol MDI use at week 2.
Setting [7] is: baseline percent predicted FEV1 <50%.
Where [8] appears, read: baseline percent predicted FEV1 ≧50%.

Take `COc1ccc(C[C@@H](C)NC[C@H](O)c2ccc(O)c(NC=O)c2)cc1` [Arformoterol]: in the data set with COPD patients [1] (setting [4]), the “Number of actuations per day, mean (SD)” value was −2.1 (2.3) actuations per day and the “Used levalbuterol, n (%)” value is recorded as 45 (95.7) n (%). The “Used levalbuterol, n (%)” value in the data set with COPD patients [1] (ITT, week 2) was 40 (52.6) n (%). In the data set with COPD patients [1] (setting [5]), the “Number of actuations per day, mean (SD)” value is −1.8 (2.2) actuations per day and the “Number of days per week, mean (SD)” value is recorded as −2.1 (2.6) days per week. Further, in the data set on COPD patients [1] (setting [6]), the “Number of actuations per day, mean (SD)” value is −1.3 (2.0) actuations per day and the “Used levalbuterol, n (%)” value is 26 (90)^ n (%). Besides, in the data set on COPD patients [2], the “Any adverse event, n (%)” value was 19 (25.0) n (%); the COPD exacerbations was 3 (3.9) n (%); the “Discontinued due to adverse events, n (%)” value is on record as 2 (2.6) n (%); the “Overall cardiovascular adverse events, n (%)” value is 2 (2.6) n (%). For the same compound, the “Serious adverse events, n (%)” value in the data set on COPD patients [2] was 1 (1.3) n (%). Moreover, the “patients reporting a serious adverse event” value in the data set on COPD patients [2] (small intestinal obstruction) is given as “one”. In the data set on COPD patients [3], the “Mean (SD) inspiratory capacity improvement from baseline” value is 0.20 L; the “Difference in trough FEV1 between combined therapy and mono-therapies, LS mean” value amounted to 0.07 L; the “Change in trough inspiratory capacity, mean (SD)” value is 0.07 (0.30) L. Besides, in the data set with COPD patients [3] (setting [7]), the “Difference between combined therapy and mono-therapies in change in inspiratory capacity, LS mean” value is reported as 0.08 L; the “Change in Inspiratory Capacity, mean (SD)” value is on record as 0.12 (0.31) L. For the same compound, in the data set with COPD patients [3] (setting [8]), the “Difference between combined therapy and mono-therapies in change in inspiratory capacity, LS mean” value is on record as 0.06 L; the “Change in Inspiratory Capacity, mean (SD)” value is listed as −0.01 (0.27) L.

As for `C[N+]1(C)[C@@H]2C[C@@H](OC(=O)C(O)(c3cccs3)c3cccs3)C[C@H]1[C@@H]1O[C@@H]12` [Tiotropium], in the data set on COPD patients [1] (setting [4]), the “Number of actuations per day, mean (SD)” value is given as −1.8 (3.3) actuations per day and the “Used levalbuterol, n (%)” value is given as 48 (94.1) n (%). For the same compound, in the data set on COPD patients [1] (ITT, week 2), the “Used levalbuterol, n (%)” value was 38 (47.5) n (%). In the data set with COPD patients [1] (setting [5]), the “Number of actuations per day, mean (SD)” value is recorded as −1.8 (2.8) actuations per day and the “Number of days per week, mean (SD)” value is −2.2 (2.7) days per week. Besides, in the data set with COPD patients [1] (setting [6]), the “Number of actuations per day, mean (SD)” value is recorded as −1.9 (1.8) actuations per day and the “Used levalbuterol, n (%)” value is on record as 27 (96.4) n (%). Also, in the data set on COPD patients [2], the “Any adverse event, n (%)” value is given as 22 (27.5) n (%); the COPD exacerbations was 0 n (%); the “Discontinued due to adverse events, n (%)” value is listed as 1 (1.3) n (%); the “Overall cardiovascular adverse events, n (%)” value is 1 (1.3) n (%). Moreover, the “Serious adverse events, n (%)” value in the data set on COPD patients [2] was 0 n (%). Besides, in the data set on COPD patients [3], the “Mean (SD) inspiratory capacity improvement from baseline” value came out at 0.19 L; the “Difference in trough FEV1 between combined therapy and mono-therapies, LS mean” value was 0.12 L; the “Change in trough inspiratory capacity, mean (SD)” value is 0.02 (0.29) L. Besides, in the data set on COPD patients [3] (setting [7]), the “Difference between combined therapy and mono-therapies in change in inspiratory capacity, LS mean” value is reported as 0.17 L; the “Change in Inspiratory Capacity, mean (SD)” value is reported as 0.02 (0.27) L. Also, in the data set with COPD patients [3] (setting [8]), the “Difference between combined therapy and mono-therapies in change in inspiratory capacity, LS mean” value is 0.02 L; the “Change in Inspiratory Capacity, mean (SD)” value is on record as 0.04 (0.33) L.
